Measurements taken from publication PMC7179119, “A New Positron Emission Tomography Probe for Orexin Receptors Neuroimaging” (Molecules, 2020).
Like-named read-outs stand apart in the source and are kept apart here.

What was measured:
Assay in all cases: PDSP off-target radioligand binding assay
5-HT2B = molecular target: T1, 5-HT2B (Homo sapiens, UniProt P41595)
T1 construct: NIMH PDSP
Outline: (§1)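 Plates containing receptor, radioligand at roughly its Kd and 10 µM compound are incubated 90 min at room temperature, protected from light. Filtration onto PEI-treated mats stops the reaction; counted radioactivity, corrected by nonspecific binding with 10 µM reference ligand, yields % inhibition from quadruplicates.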

5-HT2C = molecular target: T2, 5-HT2C (Homo sapiens, UniProt P28335)
T2 construct: NIMH PDSP
T2 sequence (P28335 33-458): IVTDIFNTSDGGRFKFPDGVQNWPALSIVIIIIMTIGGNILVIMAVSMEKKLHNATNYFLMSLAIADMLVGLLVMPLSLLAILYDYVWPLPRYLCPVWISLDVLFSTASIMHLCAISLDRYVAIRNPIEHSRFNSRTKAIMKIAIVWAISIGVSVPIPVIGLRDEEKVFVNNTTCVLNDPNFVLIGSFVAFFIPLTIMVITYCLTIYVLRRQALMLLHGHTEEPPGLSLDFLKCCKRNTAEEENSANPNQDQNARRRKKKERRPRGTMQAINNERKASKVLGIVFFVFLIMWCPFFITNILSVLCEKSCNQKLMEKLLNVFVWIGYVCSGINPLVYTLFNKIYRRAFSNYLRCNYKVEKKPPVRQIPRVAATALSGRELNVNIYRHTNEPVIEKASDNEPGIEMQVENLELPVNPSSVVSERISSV
Outline: as §1

Alpha2B = molecular target: T3, Alpha2B (Homo sapiens, UniProt P18089)
T3 construct: NIMH PDSP
T3 sequence (P18089 1-450): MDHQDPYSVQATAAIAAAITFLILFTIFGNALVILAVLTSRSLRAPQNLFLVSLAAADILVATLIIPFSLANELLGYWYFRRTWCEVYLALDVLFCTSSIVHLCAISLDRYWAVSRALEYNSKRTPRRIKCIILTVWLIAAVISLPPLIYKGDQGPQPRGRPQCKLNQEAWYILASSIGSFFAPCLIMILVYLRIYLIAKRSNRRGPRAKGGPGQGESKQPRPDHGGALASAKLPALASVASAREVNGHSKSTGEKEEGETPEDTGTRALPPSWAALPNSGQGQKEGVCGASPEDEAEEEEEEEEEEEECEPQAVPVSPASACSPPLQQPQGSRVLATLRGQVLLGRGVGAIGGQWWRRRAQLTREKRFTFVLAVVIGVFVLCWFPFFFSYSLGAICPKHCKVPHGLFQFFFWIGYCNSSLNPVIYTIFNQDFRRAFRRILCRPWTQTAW
Outline: as §1

M1 = molecular target: T4, M1 (Homo sapiens, UniProt P11229)
T4 sequence (P11229 1-460): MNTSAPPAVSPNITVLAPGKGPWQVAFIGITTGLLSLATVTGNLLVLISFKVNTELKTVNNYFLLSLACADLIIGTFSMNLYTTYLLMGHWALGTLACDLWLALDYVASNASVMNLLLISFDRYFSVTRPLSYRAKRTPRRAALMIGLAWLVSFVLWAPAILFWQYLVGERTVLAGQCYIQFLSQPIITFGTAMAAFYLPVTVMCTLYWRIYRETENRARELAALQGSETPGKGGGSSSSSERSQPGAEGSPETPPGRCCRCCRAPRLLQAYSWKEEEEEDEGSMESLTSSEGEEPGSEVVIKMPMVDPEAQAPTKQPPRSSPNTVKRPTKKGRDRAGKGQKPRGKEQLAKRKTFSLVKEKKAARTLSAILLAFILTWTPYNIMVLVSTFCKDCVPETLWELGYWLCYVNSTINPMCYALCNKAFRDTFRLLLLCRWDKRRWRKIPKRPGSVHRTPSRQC
Outline: as §1

H4 = H4 (Homo sapiens, UniProt Q9H3N8)
Chain of H4 (Q9H3N8 whole entry): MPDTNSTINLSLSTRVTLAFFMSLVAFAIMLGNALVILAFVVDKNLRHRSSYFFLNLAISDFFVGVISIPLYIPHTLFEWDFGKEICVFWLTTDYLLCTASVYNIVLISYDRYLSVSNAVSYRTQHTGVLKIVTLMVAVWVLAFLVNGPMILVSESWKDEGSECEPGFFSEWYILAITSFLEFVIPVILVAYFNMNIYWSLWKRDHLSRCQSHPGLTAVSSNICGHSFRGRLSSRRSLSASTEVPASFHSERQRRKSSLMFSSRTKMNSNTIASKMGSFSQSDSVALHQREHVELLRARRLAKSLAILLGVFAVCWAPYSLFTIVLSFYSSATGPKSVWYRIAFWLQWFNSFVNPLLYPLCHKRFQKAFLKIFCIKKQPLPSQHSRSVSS
Outline: as §1

5-HT2A = molecular target: T5, 5-HT2A (Homo sapiens, UniProt P28223)
T5 construct: NIMH PDSP
T5 sequence (P28223 whole entry, species assumed): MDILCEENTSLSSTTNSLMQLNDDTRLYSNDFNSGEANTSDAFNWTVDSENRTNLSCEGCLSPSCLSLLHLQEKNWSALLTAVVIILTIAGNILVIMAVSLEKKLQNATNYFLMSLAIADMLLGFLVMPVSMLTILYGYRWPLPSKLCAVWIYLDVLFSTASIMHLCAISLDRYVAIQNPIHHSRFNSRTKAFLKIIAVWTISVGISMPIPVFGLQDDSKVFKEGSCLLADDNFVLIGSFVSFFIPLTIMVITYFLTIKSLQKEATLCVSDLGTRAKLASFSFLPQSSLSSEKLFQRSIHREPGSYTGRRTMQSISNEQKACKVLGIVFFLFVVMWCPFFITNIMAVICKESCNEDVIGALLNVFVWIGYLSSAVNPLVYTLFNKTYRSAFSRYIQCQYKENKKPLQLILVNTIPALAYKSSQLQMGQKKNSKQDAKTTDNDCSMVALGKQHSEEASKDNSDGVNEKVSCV
Outline: as §1

M3 = M3 (Homo sapiens, UniProt P20309)
Chain of M3 (P20309 whole entry): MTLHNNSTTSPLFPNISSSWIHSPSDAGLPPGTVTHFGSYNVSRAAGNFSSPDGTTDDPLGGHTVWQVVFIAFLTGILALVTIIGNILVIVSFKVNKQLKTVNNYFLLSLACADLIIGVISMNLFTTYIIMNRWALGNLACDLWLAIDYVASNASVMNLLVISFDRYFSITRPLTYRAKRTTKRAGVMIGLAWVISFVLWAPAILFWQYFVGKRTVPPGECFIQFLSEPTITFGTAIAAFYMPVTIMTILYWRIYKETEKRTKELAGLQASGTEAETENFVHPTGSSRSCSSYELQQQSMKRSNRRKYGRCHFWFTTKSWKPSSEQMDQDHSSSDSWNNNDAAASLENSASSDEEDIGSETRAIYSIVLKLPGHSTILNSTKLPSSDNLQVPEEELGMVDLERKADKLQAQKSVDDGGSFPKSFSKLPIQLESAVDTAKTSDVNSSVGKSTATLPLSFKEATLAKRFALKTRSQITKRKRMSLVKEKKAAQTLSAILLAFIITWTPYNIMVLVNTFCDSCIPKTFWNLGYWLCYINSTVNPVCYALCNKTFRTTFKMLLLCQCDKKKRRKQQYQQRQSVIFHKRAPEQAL
Outline: as §1

[1] = quadruplicate, read-out: Mean±SD % inhibition
[2] = replicate 1, read-out: % Inhibition 1
[3] = replicate 2, read-out: % Inhibition 2
[4] = replicate 3, read-out: % Inhibition 3
[5] = replicate 4, read-out: % Inhibition 4

T1 sequence (P41595 whole entry, species assumed): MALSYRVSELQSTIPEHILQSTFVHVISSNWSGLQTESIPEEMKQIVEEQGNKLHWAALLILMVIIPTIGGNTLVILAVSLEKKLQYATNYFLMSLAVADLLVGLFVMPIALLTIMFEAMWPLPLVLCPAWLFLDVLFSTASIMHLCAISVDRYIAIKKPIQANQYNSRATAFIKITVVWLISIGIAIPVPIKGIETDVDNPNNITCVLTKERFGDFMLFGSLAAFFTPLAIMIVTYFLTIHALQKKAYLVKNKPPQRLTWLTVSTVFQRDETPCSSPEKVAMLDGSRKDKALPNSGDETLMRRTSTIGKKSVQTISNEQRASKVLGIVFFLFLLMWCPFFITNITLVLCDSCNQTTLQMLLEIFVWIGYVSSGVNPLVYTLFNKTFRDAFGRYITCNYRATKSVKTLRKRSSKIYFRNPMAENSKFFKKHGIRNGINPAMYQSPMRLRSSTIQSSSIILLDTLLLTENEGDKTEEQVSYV

## COc1ccnc(N2CCC3(CCCN(Cc4cn(C)c5ccccc45)C3=O)CC2)n1 [CW24]
5-HT2B; [1]
  inhibition at 10 µM: 21.6 ± 7.7%
5-HT2B; [2]
  inhibition at 10 µM: 45.9%
5-HT2B; [3]
  inhibition at 10 µM: 11.3%
5-HT2B; [4]
  inhibition at 10 µM: 11.2%
5-HT2B; [5]
  inhibition at 10 µM: 17.8%
5-HT2C; [1]
  inhibition at 10 µM: 14.3 ± 40.6%
5-HT2C; [2]
  inhibition at 10 µM: 28.8%
5-HT2C; [3]
  inhibition at 10 µM: -38.5%
5-HT2C; [4]
  inhibition at 10 µM: 8.5%
5-HT2C; [5]
  inhibition at 10 µM: 58.2%
Alpha2B; [1]
  inhibition at 10 µM: -9.5 ± 13.4%
Alpha2B; [2]
  inhibition at 10 µM: -8.15%
Alpha2B; [3]
  inhibition at 10 µM: -23.6%
Alpha2B; [4]
  inhibition at 10 µM: -14.5%
Alpha2B; [5]
  inhibition at 10 µM: 8.29%
M1; [1]
  inhibition at 10 µM: 0.29 ± 11.9%
M1; [2]
  inhibition at 10 µM: 17.4%
M1; [3]
  inhibition at 10 µM: -8.79%
M1; [4]
  inhibition at 10 µM: -6.38%
M1; [5]
  inhibition at 10 µM: -1.13%
H4; [1]
  inhibition at 10 µM: 3.44 ± 8.21%
H4; [2]
  inhibition at 10 µM: -8.25%
H4; [3]
  inhibition at 10 µM: 9.91%
H4; [4]
  inhibition at 10 µM: 8.32%
H4; [5]
  inhibition at 10 µM: 3.76%
5-HT2A; [1]
  inhibition at 10 µM: 12.3 ± 15.4%
5-HT2A; [2]
  inhibition at 10 µM: 25.7%
5-HT2A; [3]
  inhibition at 10 µM: 20.1%
5-HT2A; [4]
  inhibition at 10 µM: 12.8%
5-HT2A; [5]
  inhibition at 10 µM: -9.45%
M3; [1]
  inhibition at 10 µM: -9.56 ± 5.94%
M3; [2]
  inhibition at 10 µM: -5.69%
M3; [3]
  inhibition at 10 µM: -3.65%
M3; [4]
  inhibition at 10 µM: -12.4%
M3; [5]
  inhibition at 10 µM: -16.5%
